As usually defined, the IC50 is the midpoint of a concentration-inhibition curve.

Three compounds from ChEMBL document CHEMBL1147375, “Three New Bromotyrosine-Derived Metabolites of the Sponge Psammaplysilla purpurea” (J Nat Prod, 1993) can be followed below.

Assay [1] relates to Escherichia coli. The assay is described as follows: Antibacterial activity against Escherichia coli at 100 ug/disk. The assay is classed as functional, organism-based.
Assay [2] concerns Human immunodeficiency virus 1. The assay is described as follows: Antiviral activity against HIV1 Haitian RF at 1 ug/mL. The assay is classed as functional, organism-based.
Assay [3] has as its system HT-29. The assay is described as follows: Cytotoxicity against human HT-29 cells. The assay is classed as functional, cell-based.
For assay [4], the system named is KB. The assay is described as follows: Cytotoxicity against human KB cells. It counts as functional, cell-based.
The subject of assay [5] is Staphylococcus aureus. The assay is described as follows: Antibacterial activity against Staphylococcus aureus at 100 ug/disk. It counts as functional. The settings on record: read-out: IZ.
In assay [6] the test system is A549. The assay is described as follows: Cytotoxicity against human A549 cells. It counts as functional, cell-based.
In assay [7] the test system is P388. The assay is described as follows: Cytotoxicity against mouse P388 cells. It counts as functional, cell-based.

In brackets after ≈: the same amount, converted by molar mass. Activity calls are given as the source filed them. The rule behind the calls is not given here.

`COc1ccc(C/C(=N\O)C(=O)NCCc2cc(Br)c(OCCCN)c(Br)c2)cc1Br` [APLYSAMINE 3]: the outcome in assay [1] and in assay [2] was inactive. Further, the 50% inhibitory concentration (IC50) was 2 µg/mL (≈ 3.21 µM) in assay [3], 5 µg/mL (≈ 8.04 µM) in assay [4], 2 µg/mL (≈ 3.21 µM) in assay [6] and 1 µg/mL (≈ 1.61 µM) in assay [7]. Besides, in assay [5], the zone of inhibition at 100 µg/disc came to 10 mm.

With `Br.COc1c(Br)cc(C/C(=N\O)C(=O)NCCc2cc(Br)c(OCCCN)c(Br)c2)cc1Br` [APLYSAMINE 4], the result in assay [1] and in assay [2] was inactive. Moreover, the half-inhibitory concentration (IC50) was 2.5 µg/mL in assay [3], 5 µg/mL in assay [4], 2.5 µg/mL in assay [6] and 2.5 µg/mL in assay [7]. Moreover, the zone of inhibition at 100 µg/disc in assay [5] was 10 mm.

On to `COc1ccc(C/C(=N\O)C(=O)NCCc2cc(Br)c(OCCCNC(=O)CCCCCCCCCCCC(C)C)c(Br)c2)cc1Br` [APLYSAMINE 5], for which the result in assay [2] was inactive. Moreover, the concentration for half-maximal inhibition (IC50) in assay [3] was determined as 2.5 µg/mL (≈ 2.95 µM); in assay [4], 2 µg/mL (≈ 2.36 µM); in assay [6], 2.5 µg/mL (≈ 2.95 µM); in assay [7], 10 µg/mL (≈ 11.8 µM).
